Several values for one entry are separate records, joined by “and”; a condition that tells them apart may be missing. Equal entries are not always repeated. Where two headings read alike, the source gives them in different places.
How the values were obtained:
OPM-2 cells = test: FACS analysis of binding; type: cell-based; conditions: FIG. 6
Excerpt: OPM-2 cells are plasma cell leukaemia cell lines showing highly expressing CD138. […] The cells were washed and CD138-bound antibody or conjugates were detected using a fluorescence-labelled secondary antibody in FACS analysis. The mean fluorescence measured in these experiments was plotted against the antibody concentration.

CD138+ MOLP-8 cells = test: WST cell viability assay; type: cell-based
Description: CD138^+ MOLP-8 cells were seeded in flat bottom plates at 3000 cells/well. CD138^− BJAB control cells were seeded at 1000 cells/well. WST reagent (water-soluble tetrazolium salt, ROCHE) was added in order to measure cell viability according to the manufacturer's instruction (ROCHE). The reagent was incubated for 7.5 h on MOLP-8 cells and for 2 h on BJAB cells. The fraction of surviving cells was calculated based on the optical densities measured in a microplate reader using standard procedures.

[1] = system: metastatic patient tissues derived from a bladder tumor; test: Metastatic bladder tumor xenograft; type: in vivo, NMRI (nude) mice; conditions: both dose groups (4 mg/kg and 23.85 mg/kg once per week)
Excerpt: (§1) These tumors display similar characteristics as the patient tumors, since they are passaged in mice at low numbers, to retain original characteristics.
To investigate metastatic tumors, NMRI (nude) mice were implanted with a metastatic patient tissues derived from a bladder tumor (determined via IHC analysis as CD138 strong positive).

Lung carcinoma = Lung carcinoma xenograft; type: in vivo, NMRI (nude) mice; conditions: both dose groups (4 mg/kg and 23.85 mg/kg once per week)
Description: as §1
NMRI (nude) mice are implanted with a Lung carcinoma (determined via IHC analysis as CD138 strong positive).
Tumor diameters are measured two times a week.

[2] = system: pancreatic tumor tissue PAXF 736; test: Pancreas carcinoma xenograft; type: in vivo, NMRI mice; conditions: for T/C (%): day 52
Description: as §1
Tumor diameters have been measured two times a week. Tumor volumes were calculated according to the formula axbxb/2 where “a” is the longest axis and “b” the perpendicular axis thereto.
Tumor inhibition for a particular day (T/C in %) was calculated from the ratio of the median RTV (relative tumor volume) values of test versus control groups multiplied by 100%.

[3] = system: human derived breast cancer model with CD138 IHC score 1-2; test: Breast cancer model, CD138 IHC score 1-2; type: in vivo, NMRI nude mice; conditions: 1-4 mg/kg once weekly (FIG. 37)
Excerpt: No difference in the treatment regimens was observed. The results are shown in terms of the effect on the mean relative tumor volume in the model relative to an intravenous administration of PBS. For the calculation of the median relative tumor volume on day, see FIG. 33.

[4] = system: MOLP 8 human myeloma cells
Description: Female SCID mice were subcutaneously inoculated with MOLP 8 human myeloma cells. […] A control group of animals received phosphate buffered saline (PBS) using the same schedule and route of administration. Tumor growth was monitored by measuring tumor size and calculated with the formula length×width×height×1/2, determined on days 10, 14, 18 and 21.
FTV: Fractional tumor volume=mean tumor volume (test)/mean tumor volume (control)

[5] = Plasma level of BT062 (PK ELISA), repeated single dose; type: in vivo, human; conditions: for effective Cmax (cycle 1) mean: 0-2 h post infusion; for effective Cmax (cycle 4) mean: day 64
Description: Theoretical Cmax was Calculated According to the Following Assumed Parameters: […]
The same evaluation was performed during treatment cycle 4. […] The amount of BT062 in the plasma is determined via a PK ELISA method described as follows:
The wells of a microtiter plate are first coated with anti-maytansinoid (anti-DM4) antibody overnight at 2-8° C. and after blocking with assay buffer (0.5% BSA/TBS) incubated on the next day with plasma samples. These are diluted beforehand at least 1:100 in assay buffer. […] After incubation, unbound material is removed by washing. […] Unbound secondary antibody is removed by another washing step. After this, TMB substrate solution is pipetted into all the wells. […] The color reaction is ended using a stop solution, which causes the color to change from blue to yellow. The final measurement is carried out with a photometer at a wavelength of 450 nm.
The relationship between concentration and optical density is evaluated using Magellan V6.6 software.

## BT062
OPM-2 cells
  binding characteristics: very similar binding characteristics
CD138+ MOLP-8 cells; FIG. 7 (D)
  cytotoxicity after preincubation with molar excess of unconjugated nBT062: substantially blocked
CD138+ MOLP-8 cells; five days, FIG. 7
  cytotoxic activity: very similar
[1]
  tumor response: Complete remission
Lung carcinoma
  tumor response: Complete remission
[2]; 13.25 mg/kg
  complete remission obtained, days after tumor implantation: 35 days
  mice alive after 52 days: 8/8
[2]; 13.25 mg/kg once weekly
  T/C (%): 0.0%
[2]; 23.85 mg/kg
  complete remission obtained, days after tumor implantation: 28 days
[2]; 23.85 mg/kg once weekly
  T/C (%): 0.0%
[2]; both treatment groups
  tumor regrowth in treatment free observation phase: no tumor regrowth
[2]; mouse, in vivo
  side effects: No side effects
[3]
  tumor response: did not respond
[4]; BT062 100 ug/kg
  Regressions Complete: 0/6
  Regressions Partial: 0/6
  Result: Active
  T/C (%) (DAY 17): 35%
  Tumor free survivors day 77: 0/6
[4]; BT062 200 ug/kg
  Regressions Complete: 0/6
  Regressions Partial: 0/6
  Result: Active
  T/C (%) (DAY 17): 14%
  Tumor free survivors day 77: 0/6
[4]; BT062 400 ug/kg
  Regressions Complete: 1/6
  Regressions Partial: 4/6
  Result: highly active (A Log10 cell kill of higher than 2.8)
  T/C (%) (DAY 17): 9%
  Tumor free survivors day 77: 0/6
[5]; 10 mg/m^2
  percentage of theoretical Cmax (cycle 1): 15%
  effective Cmax (cycle 1) mean: 1.11 µg/mL and 1.1 µg/mL
[5]; 20 mg/m^2
  percentage of theoretical Cmax (cycle 1): 20%
  percentage of theoretical Cmax (cycle 4): 49%
  effective Cmax (cycle 1) mean: 2.9 µg/mL
  effective Cmax (cycle 4) mean: 7.06 µg/mL
[5]; 40 mg/m^2
  percentage of theoretical Cmax (cycle 1): 16%
  percentage of theoretical Cmax (cycle 4): 9%
  effective Cmax (cycle 1) mean: 4.31 µg/mL
  effective Cmax (cycle 4) mean: 2.51 µg/mL
[5]; 80 mg/m^2
  percentage of theoretical Cmax (cycle 1): 34%
  percentage of theoretical Cmax (cycle 4): 26%
  effective Cmax (cycle 1) mean: 18.8 µg/mL
  effective Cmax (cycle 4) mean: 14.2 µg/mL
[5]; 120 mg/m^2
  percentage of theoretical Cmax (cycle 1): 26.5%
  effective Cmax (cycle 1) mean: 21.4 µg/mL
[5]; 160 mg/m^2
  percentage of theoretical Cmax (cycle 1): 74.5%
  percentage of theoretical Cmax (cycle 4): 71%
  effective Cmax (cycle 1) mean: 81.2 µg/mL
  effective Cmax (cycle 4) mean: 77.4 µg/mL
[5]; 200 mg/m^2
  percentage of theoretical Cmax (cycle 1): 60%
  effective Cmax (cycle 1) mean: 82.0 µg/mL

Reference: patent US20190117770A1, “USES OF IMMUNOCONJUGATES TARGETING CD138” (Biotest AG, priority 2011, published 2019)
